Assays:
[1] = target: T1, Retinoic acid receptor RXR-alpha (Homo sapiens, UniProt P19793); test: Agonist activity at human GAL4-fused RXRalpha LBD expressed in human HEK293T cells cotransfected with pFR-Luc and pRL-SV40 assessed as increase in luciferase activity incubated for 16 hrs by Dual-Glo luciferase assay; format: cell-based
T1 sequence (P19793 whole entry): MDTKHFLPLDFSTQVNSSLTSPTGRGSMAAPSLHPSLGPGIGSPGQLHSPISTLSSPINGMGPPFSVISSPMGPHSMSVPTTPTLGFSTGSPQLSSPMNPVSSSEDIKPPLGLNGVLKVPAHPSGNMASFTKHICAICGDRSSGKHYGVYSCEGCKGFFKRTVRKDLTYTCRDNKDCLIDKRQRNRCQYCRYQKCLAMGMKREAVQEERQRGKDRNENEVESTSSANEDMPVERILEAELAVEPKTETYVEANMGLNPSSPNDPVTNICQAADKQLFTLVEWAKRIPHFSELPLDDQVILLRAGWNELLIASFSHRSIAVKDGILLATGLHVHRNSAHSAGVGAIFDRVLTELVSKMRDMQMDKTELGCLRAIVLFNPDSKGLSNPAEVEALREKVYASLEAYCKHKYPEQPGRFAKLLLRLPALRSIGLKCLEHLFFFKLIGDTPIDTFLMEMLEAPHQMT

[2] = target: T2, Retinoic acid receptor RXR-beta (Homo sapiens, UniProt P28702); test: Agonist activity at human GAL4-fused RXRbeta LBD expressed in human HEK293T cells cotransfected with pFR-Luc and pRL-SV40 assessed as increase in luciferase activity incubated for 16 hrs by Dual-Glo luciferase assay; format: cell-based
T2 sequence (P28702 whole entry): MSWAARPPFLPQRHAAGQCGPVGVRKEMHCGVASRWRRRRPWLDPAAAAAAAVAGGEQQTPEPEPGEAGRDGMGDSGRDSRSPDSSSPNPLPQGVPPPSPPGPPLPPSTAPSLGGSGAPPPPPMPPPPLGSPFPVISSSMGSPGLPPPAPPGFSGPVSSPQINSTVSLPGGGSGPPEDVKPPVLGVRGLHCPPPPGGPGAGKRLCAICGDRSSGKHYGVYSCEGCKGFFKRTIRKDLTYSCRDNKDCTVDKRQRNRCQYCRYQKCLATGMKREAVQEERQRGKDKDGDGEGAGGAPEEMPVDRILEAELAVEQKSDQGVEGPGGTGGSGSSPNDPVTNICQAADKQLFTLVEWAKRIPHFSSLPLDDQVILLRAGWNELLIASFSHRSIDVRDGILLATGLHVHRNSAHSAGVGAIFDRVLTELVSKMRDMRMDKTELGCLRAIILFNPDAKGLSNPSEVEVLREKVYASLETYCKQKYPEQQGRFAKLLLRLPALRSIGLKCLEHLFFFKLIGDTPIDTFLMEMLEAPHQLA

[3] = target: T3, Retinoic acid receptor RXR-gamma (Homo sapiens, UniProt P48443); test: Agonist activity at human GAL4-fused RXRgamma LBD expressed in human HEK293T cells cotransfected with pFR-Luc and pRL-SV40 assessed as increase in luciferase activity incubated for 16 hrs by Dual-Glo luciferase assay; format: cell-based
T3 sequence (P48443 whole entry): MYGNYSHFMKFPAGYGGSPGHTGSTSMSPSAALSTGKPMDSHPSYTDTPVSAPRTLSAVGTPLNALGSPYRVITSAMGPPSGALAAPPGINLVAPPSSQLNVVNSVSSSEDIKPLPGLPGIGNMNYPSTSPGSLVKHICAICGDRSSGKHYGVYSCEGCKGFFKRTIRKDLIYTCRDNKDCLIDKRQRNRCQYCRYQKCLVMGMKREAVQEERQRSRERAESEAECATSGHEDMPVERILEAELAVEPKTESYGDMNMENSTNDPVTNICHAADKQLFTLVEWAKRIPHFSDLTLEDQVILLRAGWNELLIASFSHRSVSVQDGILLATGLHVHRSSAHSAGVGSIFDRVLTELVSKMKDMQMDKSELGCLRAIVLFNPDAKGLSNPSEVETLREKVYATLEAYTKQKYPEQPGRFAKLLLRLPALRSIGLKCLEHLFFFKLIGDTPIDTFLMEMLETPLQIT

PXR (NR1I2) [4] = target: T4, PXR (NR1I2) (Homo sapiens, UniProt O75469); test: Agonist activity at human GAL4-fused PXR LBD expressed in human HEK293T cells cotransfected with pFR-Luc and pRL-SV40 assessed as increase in luciferase activity at 1 uM incubated for 16 hrs by Dual-Glo luciferase assay relative to control; format: cell-based; settings: HEK293T cells expressing GAL4-fused PXR LBD, read-out: Activity
T4 sequence (O75469 whole entry): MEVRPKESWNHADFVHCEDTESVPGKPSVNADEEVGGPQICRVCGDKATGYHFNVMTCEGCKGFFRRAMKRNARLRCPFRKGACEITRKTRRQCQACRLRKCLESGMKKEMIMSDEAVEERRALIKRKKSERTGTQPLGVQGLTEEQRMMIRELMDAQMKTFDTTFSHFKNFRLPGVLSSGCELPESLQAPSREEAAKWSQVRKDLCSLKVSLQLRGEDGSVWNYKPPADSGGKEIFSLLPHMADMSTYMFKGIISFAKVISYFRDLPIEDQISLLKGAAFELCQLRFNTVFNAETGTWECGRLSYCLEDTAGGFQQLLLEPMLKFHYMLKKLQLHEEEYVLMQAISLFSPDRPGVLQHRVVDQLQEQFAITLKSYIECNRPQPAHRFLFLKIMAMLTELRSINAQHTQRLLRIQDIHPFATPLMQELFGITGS

CAR (NR1I3) [5] = target: T5, CAR (NR1I3) (Homo sapiens, UniProt Q14994); test: Agonist activity at human GAL4-fused CAR LBD expressed in human HEK293T cells cotransfected with pFR-Luc and pRL-SV40 assessed as increase in luciferase activity at 1 uM incubated for 16 hrs by Dual-Glo luciferase assay relative to control; format: cell-based; settings: HEK293T cells expressing GAL4-fused CAR LBD, read-out: Activity
T5 sequence (Q14994 whole entry): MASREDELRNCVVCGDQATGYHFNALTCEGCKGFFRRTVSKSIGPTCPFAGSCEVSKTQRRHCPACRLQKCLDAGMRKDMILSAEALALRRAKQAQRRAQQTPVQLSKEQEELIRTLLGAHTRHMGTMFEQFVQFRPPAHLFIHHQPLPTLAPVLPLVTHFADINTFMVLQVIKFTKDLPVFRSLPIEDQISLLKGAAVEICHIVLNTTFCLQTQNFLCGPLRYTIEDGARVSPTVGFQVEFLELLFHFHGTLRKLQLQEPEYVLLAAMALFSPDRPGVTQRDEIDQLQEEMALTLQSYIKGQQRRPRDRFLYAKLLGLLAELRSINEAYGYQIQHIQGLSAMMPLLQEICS

[6] = target: T1, Retinoic acid receptor RXR-alpha; test: Binding affinity to human RXRalpha LBD and measured for 180 sec by ITC analysis
PXR (NR1I2) [7] = target: T4, PXR (NR1I2); test: Agonist activity at human GAL4-fused PXR LBD expressed in human HEK293T cells cotransfected with pFR-Luc and pRL-SV40 assessed as increase in luciferase activity at 30 uM incubated for 16 hrs by Dual-Glo luciferase assay relative to control; format: cell-based; settings: HEK293T cells expressing GAL4-fused PXR LBD, read-out: Activity
CAR (NR1I3) [8] = target: T5, CAR (NR1I3); test: Agonist activity at human GAL4-fused CAR LBD expressed in human HEK293T cells cotransfected with pFR-Luc and pRL-SV40 assessed as increase in luciferase activity at 30 uM incubated for 16 hrs by Dual-Glo luciferase assay relative to control; format: cell-based; settings: HEK293T cells expressing GAL4-fused CAR LBD, read-out: Activity
[9] = target: T3, Retinoic acid receptor RXR-gamma; test: Binding affinity to human RXRgamma LBD and measured for 180 sec by ITC analysis
HEK-293T [10] = test: Cytotoxicity in human HEK293T cells coexpressing GAL4-fused RXRalpha LBD, pFR-Luc and pRL-SV40 assessed as reduction in cell viability at > 10 uM incubated for 16 hrs by Dual-Glo luciferase assay; format: toxicity, cell-based
HEK-293T [11] = test: Cytotoxicity in human HEK293T cells coexpressing GAL4-fused RXRbeta LBD, pFR-Luc and pRL-SV40 assessed as reduction in cell viability at > 10 uM incubated for 16 hrs by Dual-Glo luciferase assay; format: toxicity, cell-based
HEK-293T [12] = test: Cytotoxicity in human HEK293T cells coexpressing GAL4-fused RXRgamma LBD, pFR-Luc and pRL-SV40 assessed as reduction in cell viability at > 10 uM incubated for 16 hrs by Dual-Glo luciferase assay; format: toxicity, cell-based

Row | EC50 [1] [µM] | EC50 [2] [µM] | EC50 [3] [µM] | SMILES | further results
1 | 2.2 | 2.8 | 11 | O=C(O)CCc1ccc(COc2cccc3c2CCC3)cc1F | –
2 | 3.1 | – | 13 | O=C(O)c1ccc(CNc2cccc3c2CCC3)cc1 | –
3 | – | 1.1 | – | Cc1ccc(OCc2ccc(CCC(=O)O)cc2)c2c1CCC2 | –
4 | 1.2 | 1.5 | – | O=C(O)c1ccc(COc2cccc3c2CCC3)cc1 | –
5 | 0.36 | – | – | Cc1cc(COc2ccc(C)c3c2CCC3)ccc1CCC(=O)O | activity at 16 h, 1 µM (PXR (NR1I2) [4]): 12%; activity at 16 h, 1 µM (CAR (NR1I3) [5]): 6%; Kd [6]: 0.2 µM
6 | 4.1 | – | 14 | CN(Cc1ccc(C(=O)O)cc1)c1cccc2c1CCC2 | –
7 | 7 | 8 | 10.6 | Cc1ccc(OCc2ccc(CCC(=O)O)c(Cl)c2)c2c1CCC2 | –
8 | 0.6 | – | 2.6 | O=C(O)CCc1ccc(COc2cccc3c2CCC3)cc1 | –
9 | – | 5 | – | CC1=C2[C@H](/C=C(\C)C(=O)O)CC[C@@H](C)[C@H]2CC1 [VALERENIC ACID] | –
10 | 2.4 | 2.5 | – | Cc1ccc(OCc2ccc(CC(=O)O)cc2)c2c1CCC2 | –
11 | – | – | 14 | Cc1ccc(OCc2ccc(CCC(=O)O)c(F)c2)c2c1CCC2 | activity at 16 h, 30 µM (PXR (NR1I2) [7]): 15%; activity at 16 h, 30 µM (CAR (NR1I3) [8]): 9%; Kd [9]: 6 µM
12 | – | – | – | Cc1ccc(COc2ccc(C)c3c2CCC3)cc1CC(=O)O | Activity (HEK-293T [10]): Toxic; Activity (HEK-293T [11]): Toxic; Activity (HEK-293T [12]): Toxic
13 | – | 2.9 | 11 | Cc1ccc(OCc2ccc(C(=O)O)c(F)c2)c2c1CCC2 | –
14 | 0.8 | – | – | O=C(O)c1ccc(COc2cccc3c2CCC3)cc1F | –
15 | 43 | 43 | – | Cc1cc(COc2cccc3c2CCC3)ccc1CC(=O)O | –
16 | 23 | – | – | Cc1cc(COc2cccc3c2CCC3)ccc1C(=O)O | –
17 | – | – | 5 | Cc1ccc(OCc2ccc(C(=O)O)cc2)c2c1CCC2 | –
18 | 7 | – | – | O=C(O)c1cccc(COc2cccc3c2CCC3)c1 | –
19 | – | – | – | Cc1ccc(COc2cccc3c2CCC3)cc1CC(=O)O | Activity (HEK-293T [10]): Toxic; Activity (HEK-293T [11]): Toxic; Activity (HEK-293T [12]): Toxic

Source: ChEMBL document CHEMBL5316269, “Rational Design of a New RXR Agonist Scaffold Enabling Single-Subtype Preference for RXRα, RXRβ, and RXRγ” (J Med Chem, 2023)
